{"source": "patent US20240058321A1", "about": "“FARNESYL-TRANSFERASE INHIBITORS AND KRAS INHIBITORS FOR TREATING KRAS MUTANT CANCERS” (SEMMELWEIS EGYETEM, priority 2021, published 2024)", "key": {"[1]": {"tested_on": "H358", "assay": "2D combinational test (SRB growth inhibition, six days)", "experimental": "(§3) H358, SW1573, H1792, MIAPACA2, SW1990, SNUC2B, SW480, A549 and HCT116 were purchased from ATCC, while SW48 KRAS G12C colorectal cell line and H838 KRAS G12D lung cell line was bought from Horizon Discovery Ltd. Most of the cell lines were heterozygous for mutant KRAS, as in human cases used to occur, but we also used cell lines with homozygous mutant KRAS.\n(§4) Cells were cultured in DMEM (Lonza, Switzerland; with 4500 mg/dm3 glucose, pyruvate and L-glutamine) supplemented with 10% fetal calf serum (EuroClone) and 1% penicillin-streptomycin-amphotericin (Lonza) in tissue culture flasks in a humidified 5% CO2 atmosphere at 37° C.\n(§5) For in vitro experiments drugs were dissolved in DMSO in 10 mM stock concentration and stored at −80° C.\nCells that reached 70-80% confluency were trypsinized and counted using Luna II Automated Cell Counter. Cells were plated in 5000-10000 cells/well density (depending on the growth rate of the given cell line) on a 24 well plate. Next day the medium was replaced to fresh medium supplemented with the inhibitors. After 6 days, the wells were washed with DPBS (Lonza) and the cells were fixed by 10% trichloroacetic acid and stained with Sulphorodamine-B (SRB) (Sigma) dye for 15 minutes. […] Protein-bound SRB was then dissolved in 10 mM Tris buffer (pH=7,4) and OD was measured at 570 nm using a microplate reader (EL800, BioTec Instruments, Winooski, VT). […]"}, "[2]": {"tested_on": "SW1573 spheroids", "assay": "3D spheroid growth test", "type": "cell-based, human", "protocol": "Spheroids were generated using polyHEMA coated 96we11 round bottom plates. Briefly, the inner 60 wells of the plate were coated with 60 μl 5 mg/ml polyHEMA dissolved in 96% ethanol. Plates were dried at 60° C. in a plate shaker while shaking, then sterilized with UV. Cells were seeded at 3000 cells/well density at the inner 60 polyHEMA coated wells in 200 μl medium, while the outer wells were filled with DPBS (Lonza) to avoid evaporation. Plates were then centrifugated at 2000 RPM so that cells would be concentrated at the bottom of the well thus enhancing single spheroid formation. Within 24 hours the cells aggregated into spheroids and were treated by adding further 100 μl medium supplemented with the inhibitors. Each concentration group contained three spheroids. Each spheroid was pictured using a ToupCam XW 3MP microscope-camera on the first and sixth day of the treatment. Before imaging, medium was gently suspended so that unattached or dead cells would be removed from the surface of the spheroids. Images then were analysed using ImageJ software with a modified script of [1]. Briefly, the script measures the area of the 2D projections of the spheroids. Results were manually reviewed, then area values were used to calculate radius and volume of spheroids using the formula V=4/3×π×radius^3. Data are shown as results of three independent experiments."}, "[3]": {"tested_on": "SW1573", "assay": "2D combinational test (SRB growth inhibition, six days)", "conditions": "SW1573", "experimental": "as §3, §4, §5\nCells that reached 70-80% confluency were trypsinized and counted using Luna II Automated Cell Counter. Cells were plated in 5000-10000 cells/well density (depending on the growth rate of the given cell line) on a 24 well plate. Next day the medium was replaced to fresh medium supplemented with the inhibitors. After 6 days, the wells were washed with DPBS (Lonza) and the cells were fixed by 10% trichloroacetic acid and stained with Sulphorodamine-B (SRB) (Sigma) dye for 15 minutes. Plates then were repeatedly washed with 1% acetic acid to remove excess dye. Protein-bound SRB was then dissolved in 10 mM Tris buffer (pH=7,4) and OD was measured at 570 nm using a microplate reader (EL800, BioTec Instruments, Winooski, VT). OD values were normalized to control. Transformed data then were used to calculate combinational index (CI) values using Compusyn software as described in https://www.combosyn.com/index.html. Data shown are results of three independent experiments."}, "[4]": {"tested_on": "SW1573", "assay": "siRNA knockdown experiment (SRB, IC50)", "type": "cell-based, human", "conditions": "6-day-long treatment", "protocol": "Cells were plated in 2500 and 7500 cells/well density (for non-targeting siRNA and HRAS siRNA treatment, respectively) on a 48we11 plate supplemented with pre-mixed Lipofectamine RNAIMAX Reagent (Thermo Fisher) and OptiMEM (Thermo Fisher) containing 2.5 pmol/well non-targeting or HRAS siRNA according to the manufacturer's instruction (reverse transfection protocol). […] On the 3rd day of the treatment, cells were supplemented with fresh pre-mixed 2.5 pmol/well siRNA diluted in Lipofectamine RNAiMAX Reagent and Optimem according to the manufacturer's instruction. […] OD values were normalized to control, and IC50 values were calculated from transformed data using GraphPad PRISM 5 software."}, "[5]": {"tested_on": "cancer patients", "conditions": "cited from earlier work"}, "[6]": {"tested_on": "H358 xenografts", "assay": "In vivo tumor growth of subcutaneous xenografts", "design": "species or system female SCID mice", "conditions": "AMG510 5 mg/kg i.p. and/or tipifarnib 40 mg/kg i.p.", "protocol": "(§1) H358 and SW1573 human lung adenocarcinoma cells (5×10^6 and 1×10^6, respectively) were subcutaneously injected in female SCID mice. Cells were injected in 200 μl DMEM:Matrigel mixture (ratio 1:1) based on preliminary experiments. When tumor reached approximately 100 mm^3 (H358 7 days, SW1573 26 days after injection), animals were randomized and treated intraperitoneally daily except for weekends. Drugs were dissolved in 60% DPBS, 34% PEG300, 5% DMSO and 1% Tween80. […] Controls received vehicle. Doses were determined based on previous literature, roughly using half of the used per os doses. The subcutaneous tumors were measured with a caliper and tumor volumes were calculated with the formula […] and expressed in mm^3. H358 experiment was terminated after 18 days and SW1573 after 25 days treatment. Tumors were measured upon harvest, then fixed with 4% PFA for histological analyses.\n(§2) Animals were the properties of the Department of Experimental Pharmacology, National Institute of Oncology, H-1122, Budapest, Hungary. All experiments were carried out in accordance with the Guidelines for Animal Experiments and were approved for the Department of Experimental Pharmacology in the National Institute of Oncology, Budapest, Hungary."}, "[7]": {"tested_on": "SW1573 xenografts", "assay": "In vivo tumor growth of subcutaneous xenografts", "design": "species or system female SCID mice", "conditions": "AMG510 25 mg/kg i.p. and/or tipifarnib 40 mg/kg i.p.", "protocol": "as §1, §2"}, "[8]": {"conditions": "(day 1 = 1), animal 1, in g (unit assumed)"}, "[9]": {"conditions": "(day 1 = 1), animal 3, in g (unit assumed)"}, "[10]": {"conditions": "(day 1 = 1), animal 4, in g (unit assumed)"}, "[11]": {"conditions": "(day 1 = 1), animal 6, in g (unit assumed)"}, "[12]": {"conditions": "(day 1 = 1), animal 7, in g (unit assumed)"}, "[13]": {"conditions": "(day 1 = 1), group mean, in g (unit assumed)"}}, "note": "Like-named read-outs stand apart in the source and are kept apart here."}
{"substance": "sotorasib [AMG510]", "values": [{"measurement": "Sensitivity to treatment in 2D in vitro experiments", "setting": "[1]", "value": "highly sensitive"}, {"measurement": "Drug sensitivity in 3D compared to 2D settings", "setting": "[2]", "value": "higher sensitivity"}, {"measurement": "Sensitivity to treatment in 2D in vitro experiments", "setting": "[3]", "value": "resistant"}, {"measurement": "IC50", "setting": "[4]; Cont (non-targeting) siRNA", "value": 0.1, "unit": "µM"}, {"measurement": "IC50", "setting": "[4]; HRAS siRNA", "value": 0.0517, "unit": "µM"}, {"measurement": "Clinical efficacy in monotherapy", "setting": "[5]; LUAD patients", "value": "good efficacy"}, {"measurement": "Clinical efficacy in monotherapy", "setting": "[5]; colorectal cancer patients", "value": "relatively less effective"}, {"measurement": "Clinical toxicity", "setting": "[5]; tested clinically", "value": "without rate limiting toxicities"}, {"measurement": "Weights of the tumors at the end of the experiment", "setting": "[6]; [8]", "value": 0.053}, {"measurement": "Weights of the tumors at the end of the experiment", "setting": "[6]; (day 1 = 1), animal 2, in g (unit assumed)", "value": 0.559}, {"measurement": "Weights of the tumors at the end of the experiment", "setting": "[6]; [9]", "value": 0.038}, {"measurement": "Weights of the tumors at the end of the experiment", "setting": "[6]; [10]", "value": 0.157}, {"measurement": "Weights of the tumors at the end of the experiment", "setting": "[6]; [11]", "value": 0.254}, {"measurement": "Weights of the tumors at the end of the experiment", "setting": "[6]; [12]", "value": 0.029}, {"measurement": "Weights of the tumors at the end of the experiment, MEAN", "setting": "[6]; [13]", "value": 0.1817}, {"measurement": "Inhibition of tumor growth (in words)", "setting": "[6]; daily except weekends", "value": "effectively inhibited tumors"}, {"measurement": "Weights of the tumors at the end of the experiment", "setting": "[7]; [8]", "value": 0.1025}, {"measurement": "Weights of the tumors at the end of the experiment", "setting": "[7]; [9]", "value": 0.7238}, {"measurement": "Weights of the tumors at the end of the experiment", "setting": "[7]; [10]", "value": 0.2227}, {"measurement": "Weights of the tumors at the end of the experiment", "setting": "[7]; (day 1 = 1), animal 5, in g (unit assumed)", "value": 0.144}, {"measurement": "Weights of the tumors at the end of the experiment", "setting": "[7]; [11]", "value": 0.5804}, {"measurement": "Weights of the tumors at the end of the experiment", "setting": "[7]; [12]", "value": 0.4184}, {"measurement": "Weights of the tumors at the end of the experiment, MEAN", "setting": "[7]; [13]", "value": 0.3653}, {"measurement": "Inhibition of tumor growth (in words)", "setting": "[7]; daily except weekends", "value": "effectively inhibited tumors"}]}
